Experimental findings from ChEMBL document CHEMBL4840369, “Structure-based screening combined with computational and biochemical analyses identified the inhibitor targeting the binding of DNA Ligase 1 to UHRF1” (Bioorg Med Chem, 2021) are described below.

By Kd is commonly meant the concentration at which binding is half-saturated.

The target in assay [1] is T1, E3 ubiquitin-protein ligase UHRF1 (Homo sapiens) (UniProt Q96T88).
T1 sequence (whole entry): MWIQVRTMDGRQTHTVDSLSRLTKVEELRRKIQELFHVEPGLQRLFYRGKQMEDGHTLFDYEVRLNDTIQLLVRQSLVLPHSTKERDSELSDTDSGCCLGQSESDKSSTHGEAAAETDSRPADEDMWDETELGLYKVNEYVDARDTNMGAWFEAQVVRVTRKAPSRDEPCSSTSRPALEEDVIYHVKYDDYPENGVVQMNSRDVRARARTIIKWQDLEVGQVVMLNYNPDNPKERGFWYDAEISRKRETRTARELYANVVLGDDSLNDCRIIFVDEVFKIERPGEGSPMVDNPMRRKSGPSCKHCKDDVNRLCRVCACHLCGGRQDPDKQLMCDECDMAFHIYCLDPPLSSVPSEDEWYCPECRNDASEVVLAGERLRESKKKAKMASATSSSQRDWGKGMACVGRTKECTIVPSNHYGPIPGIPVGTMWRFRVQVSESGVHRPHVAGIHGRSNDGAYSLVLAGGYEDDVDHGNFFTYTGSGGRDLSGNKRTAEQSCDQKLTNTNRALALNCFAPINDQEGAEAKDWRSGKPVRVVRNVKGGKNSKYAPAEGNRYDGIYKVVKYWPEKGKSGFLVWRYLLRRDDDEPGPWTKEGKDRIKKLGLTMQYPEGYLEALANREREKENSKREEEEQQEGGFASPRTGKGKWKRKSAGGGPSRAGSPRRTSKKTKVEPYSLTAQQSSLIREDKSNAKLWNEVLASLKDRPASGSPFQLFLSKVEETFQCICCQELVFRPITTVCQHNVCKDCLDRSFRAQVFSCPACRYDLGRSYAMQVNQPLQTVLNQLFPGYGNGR
Description: Displacement of FAM-labeled LIG1K126me3 from UHRF1 TTD(unknown origin) by fluorescence polarization assay.

Assay [2] has as its target T2, E3 ubiquitin-protein ligase UHRF1 (Xenopus laevis) (UniProt B6CHA3).
T2 sequence (whole entry): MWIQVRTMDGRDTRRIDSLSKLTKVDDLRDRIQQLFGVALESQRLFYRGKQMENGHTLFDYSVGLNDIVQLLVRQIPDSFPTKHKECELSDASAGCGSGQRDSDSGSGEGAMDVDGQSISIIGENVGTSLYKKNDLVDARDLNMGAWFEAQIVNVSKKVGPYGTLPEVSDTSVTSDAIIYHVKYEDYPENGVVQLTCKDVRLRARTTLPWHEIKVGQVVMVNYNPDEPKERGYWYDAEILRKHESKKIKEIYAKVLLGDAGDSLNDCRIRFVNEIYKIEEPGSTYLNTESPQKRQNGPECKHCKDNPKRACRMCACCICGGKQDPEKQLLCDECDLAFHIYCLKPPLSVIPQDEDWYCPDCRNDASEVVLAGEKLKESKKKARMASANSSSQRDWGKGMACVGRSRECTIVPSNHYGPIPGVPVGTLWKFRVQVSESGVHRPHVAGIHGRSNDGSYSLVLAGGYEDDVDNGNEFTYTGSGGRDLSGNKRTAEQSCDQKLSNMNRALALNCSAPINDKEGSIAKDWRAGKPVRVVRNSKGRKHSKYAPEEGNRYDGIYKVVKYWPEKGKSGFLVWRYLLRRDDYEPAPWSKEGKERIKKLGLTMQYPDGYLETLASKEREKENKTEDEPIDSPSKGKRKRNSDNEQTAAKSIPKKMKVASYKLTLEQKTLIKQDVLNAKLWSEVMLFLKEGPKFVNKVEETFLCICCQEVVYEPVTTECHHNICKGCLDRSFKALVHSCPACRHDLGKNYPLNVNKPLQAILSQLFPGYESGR
Description: Inhibition of UHRF1 TTD binding with LIG1K126me3 in Xenopus laevis eggs incubated for 1 hr by immunoprecipitation. It counts as tissue-based. Particulars: Egg.

Assay [3] has as its target E3 ubiquitin-protein ligase UHRF1 (Homo sapiens, UniProt Q96T88, Y188A/Y191A). Description: Binding affinity to UHRF1 Y188A/Y191A double mutant (unknown origin) assessed as dissociation constant by ITC analysis. A general note: ITC needs no label: the signal is the heat of the interaction.
For assay [4], the target named is T1, E3 ubiquitin-protein ligase UHRF1 (Homo sapiens). Description: Binding affinity to UHRF1 TTD (unknown origin) assessed as increase in thermal stability by measuring change in melting temperature by SYPRO orange dye based fluorescence assay.
Assay [5] has the same target. Description: Binding affinity to UHRF1 TTD (unknown origin) assessed as change in enthalpy by ITC analysis.
The target in assay [6] is T3, E3 ubiquitin-protein ligase UHRF1 (Homo sapiens, UniProt Q96T88).
T3 sequence (Q96T88 whole entry): T1 sequence (whole entry)
Description: Binding affinity to UHRF1 TTD (unknown origin) assessed as dissociation constant by ITC analysis.

The target in assay [7] is E3 ubiquitin-protein ligase UHRF1 (Homo sapiens, UniProt Q96T88, M224A). Description: Binding affinity to UHRF1 M224A mutant (unknown origin) assessed as dissociation constant by ITC analysis.
In assay [8] the target is E3 ubiquitin-protein ligase UHRF1 (Homo sapiens, UniProt Q96T88). Description: Binding affinity to UHRF1 TTD variant loop (unknown origin) assessed as dissociation constant by ITC analysis.
Assay [9] deals with E3 ubiquitin-protein ligase UHRF1 (Homo sapiens, UniProt Q96T88, F278A). Description: Binding affinity to UHRF1 F278A mutant (unknown origin) assessed as dissociation constant by ITC analysis.
The target in assay [10] is T1, E3 ubiquitin-protein ligase UHRF1 (Homo sapiens). Description: Displacement of FAM-labeled H3K9me3 from UHRF1 TTD(unknown origin) by fluorescence polarization assay. (In general: Polarisation of emitted light reports the rotation of a fluorescent probe.)
For assay [11] the target is unchanged. Description: Binding affinity to UHRF1 TTD (unknown origin) assessed as increase in thermal stability by melting temperature by SYPRO orange dye based fluorescence assay (reference value: 46.5 +/- 0.1 degreeC).
Assay [12] shares this target. Description: Binding affinity to UHRF1 TTD (unknown origin) assessed as compound-protein complex stoichiometry ratio of 1:1 by ITC analysis.

The structures appear in SMILES notation. Active and inactive are the calls of the source. No cut-off for these calls is given here.

E3 ubiquitin-protein ligase UHRF1 (Homo sapiens, UniProt Q96T88, F278A), sequence (Q96T88 whole entry F278A): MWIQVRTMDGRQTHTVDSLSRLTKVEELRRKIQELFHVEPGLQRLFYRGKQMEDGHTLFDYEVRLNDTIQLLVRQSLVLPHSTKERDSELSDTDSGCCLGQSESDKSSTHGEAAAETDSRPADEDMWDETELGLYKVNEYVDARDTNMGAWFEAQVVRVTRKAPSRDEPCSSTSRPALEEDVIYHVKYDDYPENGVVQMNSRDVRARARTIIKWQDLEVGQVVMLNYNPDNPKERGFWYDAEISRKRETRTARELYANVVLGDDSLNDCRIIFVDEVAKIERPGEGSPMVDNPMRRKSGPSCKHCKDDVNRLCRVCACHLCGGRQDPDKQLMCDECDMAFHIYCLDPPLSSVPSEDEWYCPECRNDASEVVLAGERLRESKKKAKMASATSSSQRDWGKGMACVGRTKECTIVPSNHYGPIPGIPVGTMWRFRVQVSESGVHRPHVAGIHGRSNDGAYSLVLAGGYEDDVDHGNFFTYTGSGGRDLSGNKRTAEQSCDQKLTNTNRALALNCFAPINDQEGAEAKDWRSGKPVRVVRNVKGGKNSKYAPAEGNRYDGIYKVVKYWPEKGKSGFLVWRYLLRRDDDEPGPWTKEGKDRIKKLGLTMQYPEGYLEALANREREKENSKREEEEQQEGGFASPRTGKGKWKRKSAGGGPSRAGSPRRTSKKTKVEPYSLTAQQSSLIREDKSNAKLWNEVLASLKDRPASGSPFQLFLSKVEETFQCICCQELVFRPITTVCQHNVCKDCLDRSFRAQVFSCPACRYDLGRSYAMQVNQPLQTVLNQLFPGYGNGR
E3 ubiquitin-protein ligase UHRF1 (Homo sapiens, UniProt Q96T88, Y188A/Y191A), sequence (Q96T88 whole entry Y188A/Y191A): as the sequence (Q96T88 whole entry F278A) above, with Y188A, Y191A, A278F counted along it
E3 ubiquitin-protein ligase UHRF1 (Homo sapiens, UniProt Q96T88, M224A), sequence (Q96T88 whole entry M224A): as the sequence (Q96T88 whole entry F278A) above, with M224A, A278F counted along it

Regarding `Cc1cc(C)c(N)cn1`, the INH in assay [1] was determined as 806 µM; in [10], 249 µM. Moreover, the inhibition entry in assay [2] was “Dose-Dependent Effect”. Further, the Kd in assay [3] was 32 µM; in [6] it was 19.3 µM; in assay [7] it was more than 111 µM; in assay [8], 20.7 µM; in assay [9] it was more than 183 µM. For the same compound, in [4], the deltaT is 3.1 °C. Moreover, in assay [5], the deltaH was -8.5 kcal/mol. Further, the Tm in [11] turned out to be 49.6 °C. Moreover, the result in assay [12] was Active.
